Test results: PubChem BioAssay AID1259407 (Chemical Carcinogenesis Research Information System (CCRIS), 2018)
Calls of active or inactive are those of the source. No rule for the calls is given here.

Tested on: CCRIS mutagenicity, Ames/micronucleus/aberration tests
Test: CCRIS mutagenicity studies
[1] = Test System: AMES SALMONELLA TYPHIMURIUM, Strain/Indicator: TA98, Metabolic Activation: NONE, Method: STANDARD PLATE
[2] = Test System: AMES SALMONELLA TYPHIMURIUM, Strain/Indicator: TA98, Metabolic Activation: RAT, LIVER, S-9, AROCLOR 1254, Method: STANDARD PLATE
[3] = Test System: AMES SALMONELLA TYPHIMURIUM, Strain/Indicator: TA100, Metabolic Activation: NONE, Method: STANDARD PLATE
[4] = Test System: AMES SALMONELLA TYPHIMURIUM, Strain/Indicator: TA100, Metabolic Activation: RAT, LIVER, S-9, AROCLOR 1254, Method: STANDARD PLATE
[5] = Test System: AMES SALMONELLA TYPHIMURIUM, Strain/Indicator: TA1537, Metabolic Activation: RAT, LIVER, S-9, AROCLOR 1254, Method: STANDARD PLATE
[6] = Test System: AMES SALMONELLA TYPHIMURIUM, Strain/Indicator: TA1535, Metabolic Activation: NONE, Method: STANDARD PLATE
[7] = Test System: AMES SALMONELLA TYPHIMURIUM, Strain/Indicator: TA1537, Metabolic Activation: NONE, Method: STANDARD PLATE
[8] = Test System: AMES SALMONELLA TYPHIMURIUM, Strain/Indicator: TA1538, Metabolic Activation: NONE, Method: STANDARD PLATE
[9] = Test System: AMES SALMONELLA TYPHIMURIUM, Strain/Indicator: TA1538, Metabolic Activation: RAT, LIVER, S-9, AROCLOR 1254, Method: STANDARD PLATE

Measured: mutagenic call

CC(=O)c1c(O)cc(O)c2c1C(=O)c1cc(O)cc(O)c1C2=O
inactive: [1] inactive; negative | [2] inactive; negative | [3] inactive; negative | [4] inactive; negative | [5] inactive; negative

[N-]=[N+]=CC(=O)NCC(N)=O
active: [6] active; positive | Test System: UDS RODENT CELLS, Strain/Indicator: THY INCORP (NON-S-PHASE), Metabolic Activation: NONE, Method: AUTORADIOGRAPHY active; positive

Cc1ccc([N+](=O)[O-])cc1NO
inactive: Test System: AMES SALMONELLA TYPHIMURIUM, Strain/Indicator: TA98, Metabolic Activation: NONE, Method: SUSPENSION/PLATE inactive; negative | Test System: AMES SALMONELLA TYPHIMURIUM, Strain/Indicator: TA98, Metabolic Activation: RAT, LIVER, S-9, PHENOBARBITAL AND 5,6-BENZOFLAVONE, Method: SUSPENSION/PLATE inactive; negative | Test System: AMES SALMONELLA TYPHIMURIUM, Strain/Indicator: TA100, Metabolic Activation: NONE, Method: SUSPENSION/PLATE inactive; negative | Test System: AMES SALMONELLA TYPHIMURIUM, Strain/Indicator: TA100, Metabolic Activation: RAT, LIVER, S-9, PHENOBARBITAL AND 5,6-BENZOFLAVONE, Method: SUSPENSION/PLATE inactive; negative

O=C([O-])c1ccc2ccccc2c1.[Mn+2].[O-]C(O)c1ccc2ccccc2c1
inactive: Test System: AMES SALMONELLA TYPHIMURIUM, Strain/Indicator: TA98, Metabolic Activation: HAMSTER, LIVER, S-9, AROCLOR 1254 (10%), Method: STANDARD PLATE inactive; negative | [1] inactive; negative | Test System: AMES SALMONELLA TYPHIMURIUM, Strain/Indicator: TA98, Metabolic Activation: RAT, LIVER, S-9, AROCLOR 1254 (10%), Method: STANDARD PLATE inactive; negative | Test System: AMES SALMONELLA TYPHIMURIUM, Strain/Indicator: TA100, Metabolic Activation: HAMSTER, LIVER, S-9, AROCLOR 1254 (10%), Method: STANDARD PLATE inactive; negative | [3] inactive; negative | Test System: AMES SALMONELLA TYPHIMURIUM, Strain/Indicator: TA100, Metabolic Activation: RAT, LIVER, S-9, AROCLOR 1254 (10%), Method: STANDARD PLATE inactive; negative | Test System: AMES SALMONELLA TYPHIMURIUM, Strain/Indicator: TA1535, Metabolic Activation: HAMSTER, LIVER, S-9, AROCLOR 1254 (10%), Method: STANDARD PLATE inactive; negative | [6] inactive; negative | Test System: AMES SALMONELLA TYPHIMURIUM, Strain/Indicator: TA1535, Metabolic Activation: RAT, LIVER, S-9, AROCLOR 1254 (10%), Method: STANDARD PLATE inactive; negative | Test System: AMES SALMONELLA TYPHIMURIUM, Strain/Indicator: TA1537, Metabolic Activation: HAMSTER, LIVER, S-9, AROCLOR 1254 (10%), Method: STANDARD PLATE inactive; negative | [7] inactive; negative | Test System: AMES SALMONELLA TYPHIMURIUM, Strain/Indicator: TA1537, Metabolic Activation: RAT, LIVER, S-9, AROCLOR 1254 (10%), Method: STANDARD PLATE inactive; negative | Test System: AMES SALMONELLA TYPHIMURIUM, Strain/Indicator: TA1538, Metabolic Activation: HAMSTER, LIVER, S-9, AROCLOR 1254 (10%), Method: STANDARD PLATE inactive; negative | [8] inactive; negative | Test System: AMES SALMONELLA TYPHIMURIUM, Strain/Indicator: TA1538, Metabolic Activation: RAT, LIVER, S-9, AROCLOR 1254 (10%), Method: STANDARD PLATE inactive; negative

Nc1ccc2cc(S(=O)(=O)O)c(N=Nc3ccc(N=Nc4ccccc4)cc3OCCO)c(O)c2c1
inactive: [1] inactive; negative | [3] inactive; negative | [8] inactive; negative
active: [2] active; positive | [4] active; positive | [9] active; positive

[O-][n+]1cccc2c1[C@H]1O[C@H]1C=C2
inactive: [3] inactive; negative | Test System: AMES SALMONELLA TYPHIMURIUM, Strain/Indicator: TA100, Metabolic Activation: RAT, LIVER, S-9, AROCLOR 1254 (10 OR 20%), Method: STANDARD PLATE inactive; negative

CCCCCOC(=O)NO
active: Test System: E. COLI, Strain/Indicator: WP2 UVRA, Metabolic Activation: NONE, Method: FLUCTUATION TEST active; positive

Nc1cc(S(=O)(=O)O)cc2c1C(=O)/C(=N/Nc1ccc(-c3ccc(N/N=C4/C(=O)c5c(N)cc(S(=O)(=O)O)cc5C=C4S(=O)(=O)O)cc3)cc1)C(S(=O)(=O)O)=C2
inactive: End Point: IN VITRO CHROMOSOMAL ABERRATIONS, Test System: CHINESE HAMSTER OVARY CELLS, Metabolic Activation: NONE inactive; negative | End Point: IN VITRO CHROMOSOMAL ABERRATIONS, Test System: CHINESE HAMSTER OVARY CELLS, Metabolic Activation: RAT, LIVER, S-9, AROCLOR 1254 inactive; negative | [1] inactive; negative | Test System: AMES SALMONELLA TYPHIMURIUM, Strain/Indicator: TA98, Metabolic Activation: RAT, LIVER, S-9, PHENOBARBITAL, Method: STANDARD PLATE inactive; negative | Test System: AMES SALMONELLA TYPHIMURIUM, Strain/Indicator: TA100, Metabolic Activation: RAT, LIVER, S-9, PHENOBARBITAL, Method: STANDARD PLATE inactive; negative | [9] inactive; negative | Test System: Mouse lymphoma, Strain/Indicator: L5178Y (tk+/tk-), Metabolic Activation: None, Method: Suspension/plate inactive; negative | Test System: Mouse lymphoma, Strain/Indicator: L5178Y (tk+/tk-), Metabolic Activation: Rat, Liver, S-9, Aroclor 1254, Method: Suspension/plate inactive; equivocal (previous results negative)
active: Test System: AMES SALMONELLA TYPHIMURIUM, Strain/Indicator: TA98, Metabolic Activation: HAMSTER, LIVER, S-9, Method: PREINCUBATION (PRIVAL METHOD) active; positive | Test System: AMES SALMONELLA TYPHIMURIUM, Strain/Indicator: TA100, Metabolic Activation: HAMSTER, LIVER, S-9, Method: PREINCUBATION (PRIVAL METHOD) active; positive | [3] active; positive

C/C=C/c1cc(OC)c(OC)cc1OC
inactive: Test System: AMES SALMONELLA TYPHIMURIUM, Strain/Indicator: TA97, Metabolic Activation: NONE, Method: STANDARD PLATE inactive; negative | Test System: AMES SALMONELLA TYPHIMURIUM, Strain/Indicator: TA97, Metabolic Activation: RAT, LIVER, S-9, AROCLOR 1254, Method: STANDARD PLATE inactive; negative | [1] inactive; negative | [2] inactive; negative | Test System: AMES SALMONELLA TYPHIMURIUM, Strain/Indicator: TA100, Metabolic Activation: NONE inactive; negative | [3] inactive; negative | [4] inactive; negative | Test System: AMES SALMONELLA TYPHIMURIUM, Strain/Indicator: TA1535, Metabolic Activation: RAT, LIVER, S-9, AROCLOR 1254, Method: STANDARD PLATE inactive; negative | [7] inactive; negative | [5] inactive; negative | [8] inactive; negative | [9] inactive; negative
active: Test System: AMES SALMONELLA TYPHIMURIUM, Strain/Indicator: TA100, Metabolic Activation: S-9 active; positive | [6] active; positive | Test System: UDS RAT HEPATOCYTES, Strain/Indicator: THY INCORP, Metabolic Activation: NONE, Method: LIQUID SCINTILLATION COUNTING active; positive
